The numbers were not newly measured in publication PMC10340494, “Sweeteners’ Influence on In Vitro α-Glucosidase Inhibitory Activity, Cytotoxicity, Stability and In Vivo Bioavailability of the Anthocyanins from Lingonberry Jams” (Foods, 2023), which cites them from elsewhere.

Series [1] deals with sucrase. Details: method as in PMID 18615280.
In series [2] the test system is maltase. More on the design: method as in PMID 18615280.

With `OC[C@H]1O[C@@H](Oc2cc3c(O)cc(O)cc3[o+]c2-c2ccc(O)c(O)c2)[C@H](O)[C@@H](O)[C@H]1O` [cyanidin-3-galactoside], the Inhibition of sucrase in series [1] was 64%. For the same compound, the Inhibition of maltase in series [2] is 35%.
